According to PubChem BioAssay (NCI):
“And” between values parts separate entries of the source, which are not always exact repeats. Identical values can stand only once.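 48-hour exposure; five concentrations; linearly interpolated endpoints. GI50: concentration for 50% inhibition of growth. TGI denotes the concentration required for complete inhibition of growth.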

Assays:
Assay in all cases: NCI-60 cell line screen, 48 h
SNB-75 CNS = test system: SNB-75 CNS
SF-295 CNS = test system: SF-295 CNS
CCRF-CEM leukemia = test system: CCRF-CEM leukemia
RPMI-8226 leukemia = test system: RPMI-8226 leukemia
HL-60(TB) leukemia = test system: HL-60(TB) leukemia
PC-3 prostate = test system: PC-3 prostate
NCI-H460 lung = test system: NCI-H460 lung
OVCAR-5 ovarian = test system: OVCAR-5 ovarian
UO-31 renal = test system: UO-31 renal
COLO 205 colon = test system: COLO 205 colon

| Structure (SMILES) | GI50 (SNB-75 CNS) [nM] | TGI (SNB-75 CNS) [µM] | GI50 (SF-295 CNS) [nM] | TGI (SF-295 CNS) [µM] | GI50 (CCRF-CEM leukemia) [nM] | TGI (CCRF-CEM leukemia) [µM] | GI50 (RPMI-8226 leukemia) [µM] | TGI (RPMI-8226 leukemia) [µM] | GI50 (HL-60(TB) leukemia) [µM] | TGI (HL-60(TB) leukemia) | GI50 (PC-3 prostate) [nM] | TGI (PC-3 prostate) [µM] | GI50 (NCI-H460 lung) [nM] | TGI (NCI-H460 lung) [µM] | GI50 (OVCAR-5 ovarian) [µM] | TGI (OVCAR-5 ovarian) [µM] | GI50 (UO-31 renal) [nM] | TGI (UO-31 renal) [µM] | GI50 (COLO 205 colon) [nM] | TGI (COLO 205 colon) [µM] |
| --- | --- | --- | --- | --- | --- | --- | --- | --- | --- | --- | --- | --- | --- | --- | --- | --- | --- | --- | --- | --- |
| CCOC(=O)N(O)c1ccc(/C=C/c2ccccc2)cc1 | 29300 | > 100 | 2450 | 22.1 | 9380 | > 93.5 | 5.08 | 38.8 | 8.59 | 40.5 µM | 8230 | > 100 | 913 | 15.6 | 0.737 | 9.71 | 6030 | 36.4 | 13200 | 38.5 |
| CC[C@@H](C(=O)[C@@H](C)[C@@H](O)[C@H](C)[C@@H]1O[C@@H]([C@@H](CC)C(=O)O)CC[C@@H]1C)[C@H]1O[C@]2(C=C[C@@H](O)[C@]3(CC[C@@](C)([C@H]4CC[C@](O)(CC)[C@H](C)O4)O3)O2)[C@H](C)C[C@@H]1C | 1050 | 4.31 | 447 | 7.71 | 255 | 12.7 | 0.277 | 3.75 | 0.14 | 0.815 µM | 84 | 32.6 | 441 | 11.9 | 6.61 | 80.5 | 1050 | 25.5 | 489 | 11 |
| CNc1nc(-c2ccc3c(N)n[nH]c3c2)cc(N2C[C@@H](C(=O)NC3CCCCC3)CC[C@H]2C)n1 | 457 | 7.23 | 2610 | 15.8 | 1780 | > 48.1 | 2.93 | 18.3 | 2.68 | 18.5 µM | 405 | 18.4 | 1500 | 15.7 | 3.43 | 16.8 | 854 | 13.7 | 1540 | 12 |
| COc1cc2c(=O)n(CC3CCCCC3)c3c4cc[nH]c4ncc3c2cc1OC | 209 | 1.9 | 2180 | 10.7 | 2540 | > 50 | 3.1 | > 50 | 12.8 | > 50 µM | 2230 | 12.2 | 2250 | 9.41 | 1.74 | 24.2 | 848 | 9.56 | 1670 | 11.7 |
| CCCCCCCCc1cc(O)ccc1O | 13300 | 47.3 | 20700 | 49 | 4090 | 33.3 | 10.5 | 48.5 | 3.53 | 16.2 µM | 16000 | 37.3 | 17300 | 33.1 | 19.9 | 42.8 | 15000 | 28.3 | 30100 | 68.7 |
| Cc1c2ccccc2c(C)n2c1nc1cc(Cl)c(Cl)cc12 | 36900 | > 100 | > 100000 | > 100 | 43900 | > 100 | 18.4 | > 100 | 17.5 | 9.71 µM and 77.1 µM | 31400 | > 100 | 27400 | > 100 | > 100 | > 100 | 8140 | > 100 | 19200 | > 100 |
| CN(C)CCOc1ccc2c(c1)C(=O)/C(=C\c1ncc([N+](=O)[O-])n1C)C2 | 474 | 1.98 | 460 | 1.47 | 1390 | > 100 | 2.14 | 14.4 | 0.235 | 1.09 µM | 965 | 4.82 | 217 | 0.808 | 2.02 | 5.7 | 900 | 3.68 | 250 | 0.628 |
| CSc1nc2ccc(C)cc2cc1/C=C1/C=C(c2ccccc2)NC1=O | 2810 | 14.8 | 1440 | 15 | 26400 | > 100 | 8.9 | > 100 | > 100 | > 100 µM | 5320 | > 100 | 646 | 10.9 | 19.3 | > 100 | 2580 | 12.4 | 5900 | > 100 |
| COC(=O)c1cc(C)[nH]c2c(C)cc3nc4ccccc4c3c12 | 8500 | 21 | 3410 | 14.1 | 5230 | 86.4 | 5.75 | 46.9 | 7.34 | 55.3 µM | 4860 | 18.8 | 4250 | 22.5 | 15.6 | 32.7 | 4460 | 19.1 | 12700 | 25.8 |
| C[C@@H](C[C@H](CCO)c1ccccc1)c1ccc2ccccc2c1 | 1350 | 2.76 | 1720 | 3.19 | 364 | 1.51 | 1.85 | 4.26 | 1.91 | 4 µM | 1390 | 2.72 | 1790 | 3.42 | 1.57 | 3.04 | 1540 | 2.88 | 1750 | 3.41 |
| CN1CCN(c2nc3cc(F)ccc3n3cccc23)CC1 |  | 90.7 |  | 52.9 |  | > 100 |  | > 100 |  | > 100 µM |  | > 100 |  | 43 |  | > 100 |  | > 100 |  | > 100 |
| COC(=N)CCCl |  | > 100 |  | > 100 |  | > 100 |  | > 100 |  | > 100 µM |  | > 100 |  | > 100 |  | > 100 |  | > 100 |  | > 100 |
| COc1ccc2c(c1)[nH]c1c3ccc(OC)cc3oc(=O)c21 |  | > 100 |  | > 100 |  | > 100 |  | > 100 |  | > 100 µM |  | > 100 |  | > 100 |  | > 100 |  | > 100 |  | > 100 |
| CC1=C(SCCC(=O)OC(C[Se]C2=C(C)C(=O)c3ccccc3C2=O)C(=O)NC(C)(C)C)C(=O)c2ccccc2C1=O (stereo not given) | 1450 | 2.76 | 315 | 1.21 | 306 | 1.2 | 0.507 | 2.71 | 0.68 | 2.39 µM | 457 | 1.69 | 440 | 2.06 | 1.69 | 3.08 | 680 | 2.15 | 1660 | 3.14 |
